According to patent US20140186329A1, “POLYPHENOL ANALOGS TO TREAT ISCHEMIA” (priority 2011, published 2014):
Like-named read-outs stand apart in the source and are kept apart here.

Tests used:
[1] = tested on: PC12 cells; assay: PC12 cell differentiation (neurite outgrowth); type: cell-based; settings: N2 medium, derivative 1-10 μM, 24 hr, visual inspection
Summary of the method: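 PC12 cells in N2 medium were exposed to derivatives (1-10 μM) for 24 hr, with Fisetin (10 μM) as positive control. Cells counted as positive if bearing ≥1 neurite longer than one cell body diameter; 100 cells scored in each of three fields per treatment.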

[2] = tested on: HT22 cells; assay: Maintenance of total GSH in the presence of glutamate; type: cell-based, mouse; settings: derivative 1-10 μM, 5 mM glutamate, 24 hr
Summary of the method: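 HT22 cells treated 24 hr with each derivative at 1-10 μM plus 5 mM glutamate, then extracts analysed for total GSH by chemical assay. Fisetin (10 μM) served as positive control.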

[3] = tested on: HT22 cells; assay: In vitro ischemia assay (HT22 cell IAA assay, MTT); type: cell-based, mouse; settings: for percent protection from IAA-induced cell death at 0.1 µM / Emax: HT-22; for percent protection from IAA-induced cell death at 0.1 µM: compound 100 nM; for Emax: HT22 Cell IAA assay, read-out: Max Protection; for increase of survival over the neuroprotective concentration range / neuroprotective concentration range: 20 μM IAA 2 hr, MTT at 24 hours
Summary of the method: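 Mouse HT22 hippocampal cells in DMEM/7.5% DFCS exposed 2 hr to 20 μM iodoacetic acid with or without derivative, then 20 hr in IAA-free medium still containing derivative. Viability by MTT (2.5 μg/ml, 4 hr, 37 °C), absorbance at 570 nm.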

[4] = HT22 cells, 20 μM IAA, read-out: HT22 Cell IAA assay EC50
[5] = Mus musculus, HT-22, HT22 cells, 20 μM IAA for 2 hr, viability after 24 hr by MTT, read-out: EC50 in vitro ischemia
[6] = Mus musculus, HT-22, HT22 cells, 20 μM IAA, read-out: HT22 Cell IAA assay EC50

Row | SMILES | PC12 diff'n (ability to induce PC12 cell differentiation) [1] | GSH (ability to maintain GSH) [2] | EC50 [3, 4] [nM] | EC50 [3, 5] [nM] | EC50 [3, 6] [nM] | percent protection from IAA-induced cell death at 0.1 µM ([3]; Mus musculus, 20 μM IAA) [%] | Emax ([3]; Mus musculus) [%] | fold improvement of neuroprotective activity/potency relative to Fisetin ([3]; in vitro ischemia, HT22/IAA) | fold enhancement of neuroprotective activity relative to CMS-04P ([3]; in vitro ischemia, HT22/IAA) [fold] | fold improvement of neuroprotective activity relative to CMS-007 ([3]; in vitro ischemia, HT22/IAA) [fold] | HT22 Cell IAA assay (maximal % protection) ([3]; 20 μM IAA) [%] | EC50 in vitro ischemia (μM) ([3]; HT22 cells, 20 μM IAA for 2 hr, viability after 24 hr by MTT) | increase of survival over the neuroprotective concentration range ([3]; HT22 cells) | neuroprotective concentration range ([3]; HT22 cells) [µM]
1 | O=C(/C=C/c1ccc(O)c(O)c1)c1ccc2ccccc2c1O [CMS-034, (E)-3-(3,4-dihydroxyphenyl)-1-(1-hydroxynaphthalen-2-yl)prop-2-en-1-one] | yes | yes | 79 | 80 | ≤ 100 | 63 | 81 |  |  |  |  |  |  | 
2 | O=c1c(O)c(-c2ccc(N3CCCC3)c(O)c2)oc2c1ccc1ccccc12 [CMS-140, 3-hydroxy-2-(3-hydroxy-4-(pyrrolidin-1-yl)phenyl)-4H-benzo[h]chromen-4-one] | Yes | Yes |  | 5 |  |  | 89 | up to 600 fold |  |  |  |  |  | 
3 | COc1cc(-c2ccc(O)c(O)c2)nc2ccccc12 [CMS-007, 4-methoxy-2-(3,4-dihydroxyphenyl) quinoline] | no | yes |  | 40 |  | 71 |  | ~75 fold |  |  |  |  |  | 
4 | O=c1c(O)c(-c2ccc(O)c(O)c2)oc2c1ccc1ccccc12 [CMS-040, 2-(3,4-dihydroxyphenyl)-3-hydroxy-4H-benzo[h]chromen-4-one] | yes | no |  | 90 |  | 67 |  |  | ~5.5 |  |  |  |  | 
5 | COc1cc(-c2oc3cc(C)c(C)cc3c(=O)c2O)ccc1O [CMS-069, 3-hydroxy-2-(4-hydroxy-3-methoxyphenyl)-6,7-dimethyl-4H-chromen-4-one] | no | no | 36 | 40 | < 40 | 67 |  |  |  |  |  |  |  | 
6 | CN(C)c1ccc(-c2oc3c(ccc4ccccc43)c(=O)c2O)cc1 [CMS-118, 2-(4-(dimethylamino)phenyl)-3-hydroxy-4H-benzo[h]chromen-4-one] | no | yes |  | 40 |  |  | 82 |  |  |  |  |  |  | 
7 | O=c1c(O)c(-c2ccc(O)c(O)c2)oc2ccccc12 [CMS-04P, reference compound] | yes | yes |  | 500 | 500 |  |  | ~6 fold |  |  |  |  |  | 
8 | Cc1cc(O)c(C(=O)/C=C/c2ccc(O)c(O)c2)cc1C [CMS-011, (E)-3-(3,4-dihydroxyphenyl)-1-(2-hydroxy-4,5-dimethylphenyl)prop-2-en-1-one] | yes | yes | 53 | 50 | 50 | 62 |  |  |  |  |  |  |  | 
9 | CC(C)Oc1cc(-c2ccc(O)c(O)c2)nc2ccccc12 [CMS-024, 4-isopropoxy-2-(3,4-dihydroxyphenyl) quinoline] | yes | yes |  | 20 | 21 | 72 |  |  |  | ~2 |  |  |  | 
10 | COc1cc(-c2oc3cc(C)c(C)cc3c(=O)c2O)ccc1OCc1ccccc1 [CMS-059, 2-(4-(benzyloxy)-3-methoxyphenyl)-3-hydroxy-6,7-dimethyl-4H-chromen-4-one] | no | no |  | 170 | 167 | 49 |  |  |  |  |  |  |  | 
11 | O=C(/C=C/c1ccc(O)c(O)c1)O[C@@H]1C[C@](O)(C(=O)O)C[C@@H](O)[C@H]1O [Chlorogenic Acid, 1,3,4,5-tetrahydroxy-cyclohexanecarboxylic acid 3-(3,4-dihydroxycinnamate)] |  |  |  |  | 5000 |  |  |  |  |  | 45 |  |  | 
12 | Oc1ccc(-c2cc(OC3CCCC3)c3ccccc3n2)cc1O [CMS-121, 4-cyclopentyloxy-2-(3,4-dihydroxyphenyl) quinoline] | yes | yes |  | 7 |  |  | 86 | > 400 fold |  |  |  |  |  | 
13 | COc1ccc(/C=C/C(=O)c2cc(C)c(C)cc2O)cc1OCc1ccccc1 [CMS-086, (E)-3-(3-(benzyloxy)-4-methoxyphenyl)-1-(2-hydroxy-4,5-dimethylphenyl)prop-2-en-1-one] | yes | yes |  |  |  |  |  |  |  |  |  | no |  | 
14 | CCOc1cc(-c2ccc(O)c(O)c2)nc2ccccc12 [CMS-023, 4-ethoxy-2-(3,4-dihydroxyphenyl) quinoline] | yes | yes |  | 20 | 21 | 72 |  | ~140 fold |  | ~2 |  |  |  | 
15 | O=c1cc(-c2ccccc2)oc2cc(O)c(O)c(O)c12 [Baicalein, 5,6,7-trihydroxyflavone, reference compound] |  |  |  |  | 1500 |  |  |  |  |  | 85 |  | greater than 80% | 2.5 to 10
16 | Cc1cc2oc(-c3ccc(N(C)C)cc3)c(O)c(=O)c2cc1C [CMS-117, 2-(4-(dimethylamino)phenyl)-3-hydroxy-6,7-dimethyl-4H-chromen-4-one] | no | yes |  | 20 |  |  | 81 |  |  |  |  |  |  | 
17 | O=c1c(O)c(-c2ccc(O)c(O)c2)oc2cc(O)ccc12 [Fisetin, 3,7,3′,4′-Tetrahydroxyflavone, reference compound] | yes | yes |  | 3000 | 3000 |  |  |  |  |  | 90 |  | greater than 85% | 5 to 25
18 | Cc1cc2oc(-c3ccc(N4CCCC4)cc3)c(O)c(=O)c2cc1C [CMS-122, 3-hydroxy-6,7-dimethyl-2-(4-(pyrrolidin-1-yl)phenyl)-4H-chromen-4-one] | yes | yes |  | 90 |  |  |  |  |  |  |  |  |  | 
